Experimental data reported in US20240425491A1, “HETEROARYL COMPOUNDS USEFUL IN THE TREATMENT OF COGNITIVE DISORDERS” (University College Cardiff Consultants Limited, priority 2021, published 2024).

Assays:
[1] = target: T1, human α5β3γ2L GABAA receptors in HEK293 cells (Homo sapiens, UniProt P18507+P31644); experiment: In vitro electrophysiological recording assay (α5-GABAAR relative efficacy), SyncroPatch; format: cell-based; conditions: GABA EC10-20
T1 construct: expressed in transfected cells
T1 sequence (P31644 32-462): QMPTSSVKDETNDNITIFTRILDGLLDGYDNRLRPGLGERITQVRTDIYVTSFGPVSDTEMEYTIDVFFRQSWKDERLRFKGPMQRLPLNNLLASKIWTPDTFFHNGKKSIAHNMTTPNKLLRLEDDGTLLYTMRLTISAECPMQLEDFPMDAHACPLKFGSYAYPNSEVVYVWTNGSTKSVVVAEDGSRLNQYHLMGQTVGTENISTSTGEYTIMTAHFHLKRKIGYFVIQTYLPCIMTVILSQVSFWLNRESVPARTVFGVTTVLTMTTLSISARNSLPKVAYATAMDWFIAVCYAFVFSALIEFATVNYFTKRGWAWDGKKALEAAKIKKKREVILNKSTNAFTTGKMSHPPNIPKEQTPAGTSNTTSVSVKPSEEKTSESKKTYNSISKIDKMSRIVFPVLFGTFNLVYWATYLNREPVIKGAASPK
T1 sequence (P28472 26-473 partner): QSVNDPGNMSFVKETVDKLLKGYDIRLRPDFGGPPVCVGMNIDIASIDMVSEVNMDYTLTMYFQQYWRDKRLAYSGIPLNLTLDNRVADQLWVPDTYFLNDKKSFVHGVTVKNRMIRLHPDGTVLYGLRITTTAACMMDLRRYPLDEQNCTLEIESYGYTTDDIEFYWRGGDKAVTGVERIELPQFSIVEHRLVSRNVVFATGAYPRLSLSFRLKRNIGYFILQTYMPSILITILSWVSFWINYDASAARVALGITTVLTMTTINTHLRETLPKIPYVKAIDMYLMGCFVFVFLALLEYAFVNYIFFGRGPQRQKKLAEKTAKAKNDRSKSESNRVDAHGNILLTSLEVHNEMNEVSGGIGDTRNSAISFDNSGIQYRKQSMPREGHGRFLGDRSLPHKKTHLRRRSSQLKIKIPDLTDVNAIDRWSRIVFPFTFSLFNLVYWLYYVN
T1 sequence (P18507 40-475): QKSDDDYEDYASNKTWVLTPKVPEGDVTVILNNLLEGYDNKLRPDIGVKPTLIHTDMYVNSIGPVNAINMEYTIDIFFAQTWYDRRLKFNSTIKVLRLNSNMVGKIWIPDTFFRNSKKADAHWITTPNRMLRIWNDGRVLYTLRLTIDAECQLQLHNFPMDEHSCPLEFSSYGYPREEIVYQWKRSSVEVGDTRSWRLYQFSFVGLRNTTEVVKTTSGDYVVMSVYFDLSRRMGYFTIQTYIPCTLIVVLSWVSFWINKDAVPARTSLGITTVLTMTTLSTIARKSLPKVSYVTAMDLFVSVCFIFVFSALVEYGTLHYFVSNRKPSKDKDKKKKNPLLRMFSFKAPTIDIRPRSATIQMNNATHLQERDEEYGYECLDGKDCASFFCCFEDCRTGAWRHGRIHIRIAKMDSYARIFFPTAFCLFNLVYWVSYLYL
Excerpt: Mouse L(tk^−) cells stably expressing human α1β3γ2, α2β3γ2, α3β3γ2, α5β3γ2 GABAARs generated by transfection of the individual subunits in the dexamethasone-inducible expression vector pMSGneo in mouse L(tk^−) cells (Hadingham et al., 1993, Mol. Pharmacol. 43:970-975 and 1993, Mol. Pharmacol. 44:1211-1218) were used for binding and functional assays. For certain compounds, HEK293 cells stable expressing the human α1β3γ2L, α2β3γ2L, α3β3γ2L and α5β3γ2L GABAA receptors were used to evaluate their functional effects in a SyncroPatch electrophysiology assay.
The efficacy of modulators was evaluated using either the automated patch-clamp platform QPatch16 (Sophion, Copenhagen, Denmark) or the SyncroPatch 384i (Nanion Technologies, Germany). Cells were harvested from flasks by enzymatic dissociation and re-suspended in serum-free medium.
For the Syncropatch recordings, a stacked addition protocol was used, in which GABA was rapidly applied and then washed off from the cell. All experiments were carried out at room temperature (20-22° C.) using a standard whole cell procedure. The currents recorded were acquired at 2 kHz and filtered using a Bessel filter. Whole-cell currents were measured at a holding potential of −80 mV.
For Syncropatch recordings, the extracellular recording solution contained: 140 mM NaCl, 4 mM KCl, 2 mM CaCl2), 1 mM MgCl2, 10 mM HEPES, 5 mM glucose (pH 7.4 and osmolarity of c. 300-310 mOsm/L). The intracellular recording solution contained: 90 mM KCl, 50 mM KF, 1.5 mM MgCl2, 11.1 mM EGTA and 10 mM HEPES (pH 7.2 and osmolarity of c. 300 mOsm/L). 2 mM of NaATP was added to the intracellular solution on the day of testing.
The effects of modulators were evaluated in the presence of a submaximal GABA concentration, giving typically 10-20% activation (GABA EC10-20) of the response elicited by a saturating GABA concentration. For QPatch recordings, to check and ensure baseline current stability before compound addition, five consecutive applications of GABA EC10-20 alone (each application with a 2 s duration, separated by minimum 1 min wash off periods) were performed before compound addition. The test compound was applied using the pipetting system of the QPatch system 1 min at least prior to co-application with GABA EC10-20. For SyncroPatch recordings, GABA EC20 alone was applied three times (1 s long applications, with wash steps in-between) before compound addition. This was followed by a 1-2 min pre-incubation with the test compound and then re-application of GABA EC10-20 in the presence of the compound. Finally, following a further wash step, a saturating concentration of GABA was applied, allowing the accurate evaluation for each cell of the percentage baseline activation elicited by the submaximal GABA applied.
The compounds were first dissolved in DMSO as a 10 mM stock and then further diluted to the testing concentrations so that the final DMSO concentration in the extracellular recording solution was kept constant at 0.1% for the QPatch recordings, or 0.2% for the SyncroPatch recordings.
The % efficacy of modulators was determined from the GABA elicited currents recorded in the presence and absence of the test compound, using the formula:
[((compound peak current−leak)−(GABA peak current−leak))/(GABA peak current−leak)]*100,
where ‘leak’ is the leak baseline current at −65 mV, ‘compound peak current’ is the current elicited by co-application of compound and GABA, and ‘GABA peak current’ is the current elicited by GABA alone during the 5th GABA application. The results were presented as ‘relative efficacy’ for each compound generally at a concentration equal or higher than 100 times their determined Ki. The relative efficacy of a compound was calculated by normalising its efficacy to the efficacy of methyl-6,7-dimethoxy-4-ethyl-beta-carboline-3-carboxylate (DMCM) that was separately determined produced an attenuation of GABA-induced currents of −57±4%, n=5.

[2] = target: T2, human α5β3γ2 GABAARs in mouse L(tk−) cells (Homo sapiens, UniProt P18507+P31644); experiment: In vitro electrophysiological recording assay (α5-GABAAR relative efficacy), QPatch; format: cell-based; conditions: GABA EC10-20
T2 construct: expressed in transfected cells; host or cells: mouse L(tk−) cells, dexamethasone-inducible vector pMSGneo
T2 sequence (P31644 32-462): as the sequence (P31644 32-462) above
T2 sequence (P28472 26-473 partner): as the sequence (P28472 26-473 partner) above
T2 sequence (P18507 40-475): as the sequence (P18507 40-475) above
In short: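 Whole-cell QPatch recordings at 20-22° C, −65 mV holding, in dexamethasone-induced (1 μM, 24 h) L(tk−) cells. Compound pre-applied ≥1 min, then co-applied with GABA EC10-20; percentage change in leak-corrected peak current, taken at ≥100× Ki, normalised to DMCM efficacy; 0.1% DMSO final.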

[3] = target: T3, human recombinant GABAAR containing α5β3γ2 subunits (benzodiazepine site) (Homo sapiens, UniProt P18507+P31644); experiment: In vitro radioligand binding assay (α5-GABAAR Ki); conditions: inhibition of [3H]Ro15-1788 binding, membranes of L(tk−) cells expressing human α5β3γ2; read-out: α5-GABAAR Ki
T3 construct: expressed in transfected cells; host or cells: mouse L(tk−) cells, dexamethasone-inducible vector pMSGneo
T3 sequence (P31644 32-462): as the sequence (P31644 32-462) above
T3 sequence (P28472 26-473 partner): as the sequence (P28472 26-473 partner) above
T3 sequence (P18507 40-475): as the sequence (P18507 40-475) above
In short: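 Membranes from mouse L(tk^−) cells stably expressing human α5β3γ2 GABAAR incubated 1 h at 4° C with 4 nM [^3H]Ro15-1788 and test compound; nonspecific binding with 1 μM TP003. Filter-bound radioactivity counted; Ki from IC50 by Cheng-Prusoff using measured Kd.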

Structure (SMILES) | α5-GABAAR Relative Efficacy (to DMCM), SyncroPatch ([1]; Conc 0.1 μM) | α5-GABAAR Relative Efficacy (to DMCM), Qpatch ([2]; Conc 1 μM) | Ki [3] [nM] | α5-GABAAR Relative Efficacy (to DMCM), Qpatch ([2]; Conc 0.1 μM) | α5-GABAAR Relative Efficacy (to DMCM), Qpatch ([2]; Conc 0.3 μM) | α5-GABAAR Relative Efficacy (to DMCM), SyncroPatch ([1]; Conc 0.03 μM)
COc1nc(-c2cnn(C)c2)ccc1NC(=O)c1c(-c2ccccc2)noc1C [Example 4, N-[2-Methoxy-6-(1-methylpyrazol-4-yl)-3-pyridyl]-5-methyl-3-phenyl-isoxazole-4-carboxamide] | −0.36 | −0.68 | 29.7 |  |  | 
COc1nc(-c2cnc(N)nc2)ccc1NC(=O)c1c(-c2ccccc2)noc1C [Example 43, N-[6-(2-Aminopyrimidin-5-yl)-2-methoxy-3-pyridyl]-5-methyl-3-phenyl-isoxazole-4-carboxamide] | −0.90 |  | 0.5 | −0.76 |  | 
CNc1ncc(-c2ccc(NC(=O)c3c(-c4ccccc4)noc3C)c(OC)n2)cn1 [Example 47, N-[2-Methoxy-6-[2-(methylamino)pyrimidin-5-yl]-3-pyridyl]-5-methyl-3-phenyl-isoxazole-4-carboxamide] | −1.00 |  | 0.8 | −0.81 |  | 
COc1nc(-c2cnc(C(F)(F)F)nc2)ccc1NC(=O)c1c(-c2ccccc2)noc1C [Example 53, N-[2-Methoxy-6-[2-(trifluoromethyl)pyrimidin-5-yl]-3-pyridyl]-5-methyl-3-phenyl-isoxazole-4-carboxamide] | −0.83 |  | 2.4 |  | −0.92 | 
COc1nc(-c2cnc(N)cn2)ccc1NC(=O)c1c(-c2ccccc2)noc1C.Cl [Example 55, N-[6-(5-Aminopyrazin-2-yl)-2-methoxy-3-pyridyl]-5-methyl-3-phenyl-isoxazole-4-carboxamide hydrochloride] | −0.93 | −0.92 | 3.4 |  |  | 
COc1nc(-c2cnc(N)nc2)cnc1NC(=O)c1c(-c2ccccc2)noc1C [Example 67, N-[5-(2-Aminopyrimidin-5-yl)-3-methoxy-pyrazin-2-yl]-5-methyl-3-phenyl-isoxazole-4-carboxamide] | −1.14 |  | 0.6 | −0.94 |  | 
COc1nc(-c2cnoc2)ccc1NC(=O)c1c(-c2ccccc2)noc1C [Example 68, N-(6-Isoxazol-4-yl-2-methoxy-3-pyridyl)-5-methyl-3-phenyl-isoxazole-4-carboxamide] | −0.56 | −0.66 | 3.2 |  |  | 
COc1nc(-c2cnc(CN(C)C)nc2)ccc1NC(=O)c1c(-c2ccccc2)noc1C [Example 74, N-[6-[2-[(Dimethylamino)methyl]pyrimidin-5-yl]-2-methoxy-3-pyridyl]-5-methyl-3-phenyl-isoxazole-4-carboxamide] | −0.62 |  | 2.1 |  | −1.00 | 
COCCOc1nc(-c2cnc(N)nc2)ccc1NC(=O)c1c(-c2ccc(F)cc2)noc1C [Example 217, N-[6-(2-Aminopyrimidin-5-yl)-2-(2-methoxyethoxy)-3-pyridyl]-3-(4-fluorophenyl)-5-methyl-isoxazole-4-carboxamide] | −0.16 |  | 6.4 |  |  | 
Cc1onc(-c2ccc(F)cc2)c1C(=O)Nc1ccc(-c2cnc(N)nc2)nc1OCCO [Example 218, N-[6-(2-Aminopyrimidin-5-yl)-2-(2-hydroxyethoxy)-3-pyridyl]-3-(4-fluorophenyl)-5-methyl-isoxazole-4-carboxamide] | −0.51 |  | 19.5 |  |  | 
COc1nc(-c2ccc(CO)cc2)ccc1NC(=O)c1c(-c2ccccc2)noc1C [Example 219, N-[6-[4-(hydroxymethyl)phenyl]-2-methoxy-3-pyridyl]-5-methyl-3-phenyl-isoxazole-4-carboxamide] |  |  | 4.4 |  |  | −0.45
COc1nc(-c2cnoc2)ccc1NC(=O)c1c(-c2ccc(F)cc2)noc1C [Example 221, 3-(4-fluorophenyl)-N-(6-(isoxazol-4-yl)-2-methoxypyridin-3-yl)-5-methylisoxazole-4-carboxamide] | −1.15 |  | 0.8 |  |  | 
COc1nc(-c2ccc(N)nc2)ccc1NC(=O)c1c(-c2ccc(F)cc2)noc1C [Example 222, N-(6′-amino-6-methoxy-[2,3′-bipyridin]-5-yl)-3-(4-fluorophenyl)-5-methylisoxazole-4-carboxamide] | −0.78 |  | 0.5 |  |  | 
COc1nc(-c2cnc(N)nc2)ncc1NC(=O)c1c(-c2ccccc2)noc1C [Example 223, N-(2′-amino-4-methoxy-[2,5′-bipyrimidin]-5-yl)-5-methyl-3-phenylisoxazole-4-carboxamide] | −1.06 |  | 1.3 |  |  | 
COc1nc(-c2ccc(CN3CC4COCC(C4)C3)cc2)ccc1NC(=O)c1c(-c2ccccc2)noc1C [Example 228, N-[2-methoxy-6-[4-(3-oxa-7-azabicyclo[3.3.1]nonan-7-ylmethyl)phenyl]-3-pyridyl]-5-methyl-3-phenyl-isoxazole-4-carboxamide] | −0.68 |  | 1.3 |  |  | 
COc1nc(-c2cnoc2)ncc1NC(=O)c1c(-c2ccccc2)noc1C [Example 229, N-(2-isoxazol-4-yl-4-methoxy-pyrimidin-5-yl)-5-methyl-3-phenyl-isoxazole-4-carboxamide] | −0.79 |  | 87.4 |  |  | 
COc1nc(-c2ccc(CN3CCOCC3)nc2)ccc1NC(=O)c1c(-c2ccccc2)noc1C [Example 230, N-(6-methoxy-6′-(morpholinomethyl)-[2,3′-bipyridin]-5-yl)-5-methyl-3-phenyl-isoxazole-4-carboxamide] | −1.10 |  | 1.4 |  |  | 
COc1nc(-c2ccc(CN3CC4(COC4)C3)nc2)ccc1NC(=O)c1c(-c2ccccc2)noc1C [Example 231, N-(6′-((2-oxa-6-azaspiro[3.3]heptan-6-yl)methyl)-6-methoxy-[2,3′-bipyridin]-5-yl)-5-methyl-3-phenylisoxazole-4-carboxamide] | −1.00 |  | 1.3 |  |  | 
COc1nc(-c2ccc(CN3CC4COCC(C4)C3)nc2)ccc1NC(=O)c1c(-c2ccccc2)noc1C [Example 232, N-(6′-((3-oxa-7-azabicyclo[3.3.1]nonan-7-yl)methyl)-6-methoxy-[2,3′-bipyridin]-5-yl)-5-methyl-3-phenylisoxazole-4-carboxamide] | −0.73 |  | 0.6 |  |  | 
